Assay results published in patent US9005575B2, “Arg-Gly-Asp-conjugated alpha-melanocyte stimulating hormone hybrid peptide for use in diagnosing and treating melanoma, including metastatic melanoma and methods related to same” (STC.UNM, priority 2009, dated 2015).
Read-outs that look alike come from different tables or passages of the source. Positions of bridges follow the written chain, without caps; N, C: chain ends. Non-standard residues stand in square brackets, D forms with d. Residues, ends and D or L forms follow the SMILES beside them.

Tests used:
[1] = tested on: B16/F1 murine melanoma cells; test: Specificity of cellular uptake (peptide blockade); type: cell-based; settings: 0.1 μM of blocking peptide, 25° C., 120 min
Description: The specificity of cell binding was determined by incubating ^99mTc-RGD-Lys-(Arg^11)CCMSH with or without non-radioactive peptides. After being washed once with binding media, B16/F1 cells in 24-well cell culture plates were incubated with approximately 200,000 cpm of HPLC purified ^99mTc-RGD-Lys-(Arg^11)CCMSH at 25° C. for 120 min (n=4) in the presence of 0.1 μM of RGD-Lys-(Arg^11)CCMSH, NDP-MSH, (Arg^11)CCMSH or RGD in 0.5 ml of binding media, respectively. The reaction media were aspirated after the incubation. The cells were rinsed twice with 0.5 ml of ice-cold pH 7.4, 0.2% BSA/0.01 M PBS and lysed in 0.5 ml of 1 N NaOH for 5 min. The activities associated with cells were measured in a gamma counter. Statistical analysis was performed using the Student's t-test for unpaired data.
The specificity of cellular uptake was determined by incubating ^99mTc-RGD-Arg-(Arg^11)CCMSH with or without non-radioactive peptides. After being washed once with binding medium, B16/F1 cells in 24-well cell culture plates were incubated with approximately 200,000 cpm of HPLC purified ^99mTc-RGD-Arg-(Arg^11)CCMSH at 25° C. for 120 min (n=3) in the presence of 0.1 μM of RGD-Arg-(Arg^11)CCMSH, (Arg^11)CCMSH, RGD or no peptide blockade in 0.5 mL of binding medium, respectively. The reaction medium was aspirated after the incubation. The cells were rinsed twice with 0.5 mL of ice-cold pH 7.4, 0.2% BSA/0.01 M PBS and lysed in 0.5 mL of 1 N NaOH for 5 min. The activities associated with cells were measured in a gamma counter.

B16/F1 melanoma cells = test: Clonogenic cytotoxicity; type: cell-based, murine; settings: 6 days post the treatment; for Decrease in clonogenic survival compared to untreated group: 0.1 μM (100 nM), 3 h incubation
Description: To determine whether the replacement of the Lys linker with Arg linker affected the clonogenic cytotoxicity of the hybrid peptide, we examined the clonogenic cytotoxic effect of RGD-Arg-(Arg^11)CCMSH in B16/F1 melanoma cells according to our published procedure (17). The B16/F1 cells were seeded in a 6-well plate (200 cells/well) and incubated at 37° C. overnight. […] Control cells were only incubated in the culture medium. After the incubation, the cells were washed with PBS twice and allowed to form colonies over 6 days in the culture medium. The medium was changed every other day. After 6 days, the cells were fixed with methanol:glacial acetic acid (3:1), stained with hematoxylin and visually examined under microscope for survival. Colonies contained more than 50 cells were scored as survivors.

MC1 receptor [2] = biological target: T1, MC1 receptor (Mus musculus, UniProt Q01727); test: In vitro competitive binding assay in B16/F1 melanoma cells; design: species or system murine; settings: competition with ^125I-(Tyr^2)-NDP-MSH, 25° C., 2 h, read-out: IC50 value (MC1 receptor binding affinity)
T1 construct: host or cells: B16/F1 murine melanoma cells
Description: The IC50 value of RGD-Lys-(Arg^11)CCMSH was determined according to our previously published procedure (27). B16/F1 cells were harvested and seeded into a 24-well cell culture plate (5×10^5/well) and incubated at 37° C. overnight. After being washed with binding media (MEM with 25 mM HEPES, pH 7.4, 0.2% BSA, 0.3 mM 1,10-phenathroline), the cells were incubated at room temperature (25° C.) for 2 h with approximately 40,000 counts per minute (cpm) of ^125I-(Tyr^2)-NDP-MSH in the presence of increasing concentrations (10^−12 to 10^−5 M) of RGD-Lys-(Arg^11)CCMSH in 0.3 ml of binding media. The reaction media were aspirated after the incubation. […] The activities associated with cells were measured in a Wallac 1480 automated gamma counter (PerkinElmer, NJ). The IC50 value for the peptide was calculated by fitting the data with nonlinear regression using Prism software (GraphPad Software, La Jolla, Calif.).
The IC50 value of RGD-Arg-(Arg^11)CCMSH was determined according to our previously published procedure (17). […] The activities associated with cells were measured in a Wallac 1480 automated gamma counter (PerkinElmer, NJ). The IC50 value for the peptide was calculated using Prism software (GraphPad Software, La Jolla, Calif.).

MC1 receptor [3] = biological target: T1, MC1 receptor; settings: literature value (ref. 8); read-out: MC1 receptor binding affinity; cited from earlier work

T1 sequence (Q01727 whole entry): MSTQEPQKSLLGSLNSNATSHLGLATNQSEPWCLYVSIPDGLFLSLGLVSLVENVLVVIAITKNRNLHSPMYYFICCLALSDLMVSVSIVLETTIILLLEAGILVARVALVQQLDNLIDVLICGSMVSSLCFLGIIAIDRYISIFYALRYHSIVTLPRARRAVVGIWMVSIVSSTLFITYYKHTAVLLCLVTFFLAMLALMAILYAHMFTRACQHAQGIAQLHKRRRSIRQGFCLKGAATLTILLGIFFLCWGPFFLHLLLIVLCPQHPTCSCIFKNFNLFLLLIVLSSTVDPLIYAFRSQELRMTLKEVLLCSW

Molecule | Decrease of cellular uptake of ^99mTc-RGD-Arg-(Arg^11)CCMSH by peptide blockade [1] | Decrease in clonogenic survival compared to untreated group (B16/F1 melanoma cells) | IC50 (MC1 receptor [2]) | Decrease of clonogenic survival compared to untreated control (B16/F1 melanoma cells; 93 μmol, single treatment (3 h incubation), unpublished preliminary studies) | Decrease of cellular uptake of ^99mTc-RGD-Lys-(Arg^11)CCMSH by peptide blockade [1] | IC50 (MC1 receptor [3])
CC(C)[C@H](NC(=O)[C@@H]1CCCN1C(=O)[C@H](CCCNC(=N)N)NC(=O)[C@H](CS)NC(=O)[C@H](Cc1c[nH]c2ccccc12)NC(=O)[C@H](CCCNC(=N)N)NC(=O)[C@@H](Cc1ccccc1)NC(=O)[C@H](Cc1c[nH]cn1)NC(=O)[C@H](CCC(=O)O)NC(=O)[C@H](CS)NC(=O)[C@H](CS)NC(=O)[C@H](CCCNC(=N)N)NC(=O)[C@@H]1CC(=O)N[C@@H](CCCNC(=N)N)C(=O)NCC(=O)N[C@@H](CC(=O)O)C(=O)N[C@H](Cc2ccc(O)cc2)C(=O)N1)C(N)=O [RGD-Arg-(Arg^11)CCMSH] (RGD[dY]DRCCEH[dF]RWCRPV-NH2; lactam N-5; C-terminus assumed) | 76% | 62% | 0.7 nM |  |  | 
CC(C)[C@H](NC(=O)[C@@H]1CCCN1C(=O)[C@H](CCCNC(=N)N)NC(=O)[C@H](CS)NC(=O)[C@H](Cc1c[nH]c2ccccc12)NC(=O)[C@H](CCCNC(=N)N)NC(=O)[C@@H](Cc1ccccc1)NC(=O)[C@H](Cc1c[nH]cn1)NC(=O)[C@H](CCC(=O)O)NC(=O)[C@H](CS)NC(=O)[C@H](CS)NC(=O)[C@H](CCCCN)NC(=O)[C@@H]1CC(=O)N[C@@H](CCCNC(=N)N)C(=O)NCC(=O)N[C@@H](CC(=O)O)C(=O)N[C@H](Cc2ccc(O)cc2)C(=O)N1)C(N)=O [RGD-Lys-(Arg^11)CCMSH] (RGD[dY]DKCCEH[dF]RWCRPV-NH2; lactam N-5; C-terminus assumed) |  |  |  | 65% |  | 
Cyclo(Arg-Gly-Asp-DPhe-Val) [RGD, reference compound] | didn't reduce | 7% |  |  | didn't reduce | 
[Cys^3,4,10, D-Phe^7, Arg^11]α-MSH3-13 [(Arg^11)CCMSH, reference compound] | 78% | 11% |  |  |  | 1.7 nM
